This note sets out measurements from US9920072B2, “BACE1 inhibitors” (Hoffmann-La Roche Inc., priority 2014, dated 2018).

One experiment has as its target T1, BACE1 (Homo sapiens, UniProt P56817).
T1 construct: endogenous in cells; host or cells: HEK293 APP cells (HEK293 expressing APP)
Briefly: Cellular Aβ-lowering assay (Abeta 40 AlphaLISA, HEK293 APP cells). Type of experiment: cell-based. The note with it: 18-20 hrs incubation, Aβ40 in culture supernatant, read-out: BACE1 cell act. Aβ40 IC50. Here is the method: Cellular Aβ-lowering Assay:
The Abeta 40 AlphaLISA Assay can be used. The HEK293 APP cells were seeded in 96 well Microtiter plates in cell culture medium (Iscove's, plus 10% (v/v) fetal bovine serum, penicillin/streptomycin) to about 80% confluency and the compounds were added at a 3× concentration in ⅓ volume of culture medium (final DMSO concentration was kept at 1% v/v). After 18-20 hrs incubation at 37° C. and 5% CO2 in a humidified incubator, the culture supernatants were harvested for the determination of Aβ40 concentrations using Perkin-Elmer Human Amyloid beta 1-40 (high specificity) Kit (Cat# AL275C).
In a Perkin-Elmer White Optiplate-384 (Cat# 6007290), 2 ul culture supernatants were combined with 2 μl of a 10× AlphaLISA Anti-hAβAcceptor beads+Biotinylated Antibody Anti-Aβ1-40 Mix (50 μg/mL/5 nM). After 1 hour room temperature incubation, 16 μl of a 1.25 × preparation of Streptavidin (SA) Donor beads (25 μg/mL) were added and incubated for 30 minutes in the Dark. Light Emission at 615 nm was then recorded using EnVision-Alpha Reader. Levels of Aβ 40 in the culture supernatants were calculated as percentage of maximum signal (cells treated with 1% DMSO without inhibitor). The IC50 values were calculated using the Excel XLfit software.
A general note: Alpha assays give light when donor and acceptor beads are brought close together.

Experiment [1] deals with Aβ40 in brain of wild-type mice. Briefly: Lowering of Aβ40 in brain of wild-type mice. Conditions: female C57Bl/6J mice, 30 mg/kg per os, 4 h after dose, brain Aβ40 as percentage of the vehicle group. The class given is in vivo, mouse. Here is the method: Lowering of Aβ40 in Brain of Wild-Type Mice:
Animals and Housing Conditions. Animals were maintained in a 12/12 h light/dark cycle, with lights starting at 6 a.m., and experiments were conducted during the light phase. Animal housing and experimental procedures were in line with ethical and legal guidelines and were authorized by local veterinary authorities.
Experiment. Female C57B1/6J mice were treated with a dose of 30 mg/kg of the compounds, 3-4animals per treatment group. The test compound was dissolved in 5% EtOH, 10% Solutol, and was applied per os at 10 mL/kg. After 4 h, the animals were sacrificed and brain and plasma were collected. The brain was cut into halves and immediately frozen on dry ice. Brain was used for measurement of Aβ40 and plasma was used for determination of compound exposure. […] Brain tissue was homogenized in 2% DEA buffer in a Roche MagnaLyser (20″, 4000 rpm) and subsequently centrifuged for 1 h at 100000 g. DEA was reduced to 0.2% in 50 mM NaCl and one-half of the DEA lysate was passed over an Oasis Solid phase extraction plate (Waters; cat. no. 186000679), which had been activated with MeOH and equilibrated in dH2O (1 mL each). After washes in 10% and 30% MeOH (1 mL each), the Aβ-peptides were eluted in 0.8 mL of 2% NH4OH in 90% MeOH. The eluate was dried over a N2 flow, and the dried sample was reconstituted in 30 μL of AlphaLISA assay buffer. Aβ40 was determined by an AlphaLISA assay (Perkin-Elmer). In a white 96-well, half area microplate (Perkin-Elmer cat. no. 6005561), 20 μL of the reconstituted sample were mixed with 5 μL of biotinylated BAP-24 (specific for C-terminus of Aβ40) (Brockhaus, M.; Grunberg, J.; Rohrig, S.; Loetscher, H.; Wittenburg, N.; Baumeister, R.; Jacobsen, H.; Haass, C. Caspasemediated cleavage is not required for the activity of presenilins in amyloidogenesis and NOTCH signaling. NeuroReport 1998, 9, 1481-1486.) stock=4.4 mg/mL, f.c.5.5 μg/mL), and 5 μL 252Q6 acceptor beads (252Q6 antibody, Invitrogen AMB0062) had been previously conjugated with AlphaLISA Acceptor beads (Perkin-Elmer cat. no. 6772002); final dilution 1:500). The mix was incubated for 1 h at RT in the dark. Then 20 μL of Streptavin-coated Donor Beads (Perkin-Elmer cat. no. 6760002, final dilution 1:125) were added and this final mix was incubated in the dark for another 30 min at RT before RFU was measured in an AlphaScreen Reader (Perkin-Elmer Envision 2104). The value obtained for Aβ40 in the treated animals was related to the value in the vehicle group and is given in %. Alternatively a commercial ELISA was used for Aβ40 determination (Wako ELISA: (“Human/Rat β Amyloid (40) ELISA kit Wako II”; cat nr. 294-64701) following the manufacture's instruction. Also here the Aβ-lowering efficacy was calculated as percentage of the vehicle group.

T1 sequence (P56817 46-501): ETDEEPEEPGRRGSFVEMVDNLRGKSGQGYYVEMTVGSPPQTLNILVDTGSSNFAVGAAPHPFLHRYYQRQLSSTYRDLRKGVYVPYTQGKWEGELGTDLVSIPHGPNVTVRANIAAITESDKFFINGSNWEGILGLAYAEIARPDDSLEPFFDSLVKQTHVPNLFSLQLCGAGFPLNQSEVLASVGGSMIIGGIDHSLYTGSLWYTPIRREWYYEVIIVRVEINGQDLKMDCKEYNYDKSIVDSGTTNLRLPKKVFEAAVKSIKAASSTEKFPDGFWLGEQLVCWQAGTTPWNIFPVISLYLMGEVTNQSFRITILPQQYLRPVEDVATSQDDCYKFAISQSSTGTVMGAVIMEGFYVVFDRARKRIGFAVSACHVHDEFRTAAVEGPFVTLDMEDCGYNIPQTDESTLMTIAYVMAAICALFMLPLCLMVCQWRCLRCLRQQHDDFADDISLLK

In general, IC50 refers to the midpoint of a concentration-inhibition curve. Take `Cc1cc(C#N)cnc1C(=O)Nc1ccc(F)c(C2(C)CS3(=O)=NCCCC3(C)C(N)=N2)n1` (single isomer, unassigned) [Example 1, N-[6-(5-amino-4a,7-dimethyl-9-oxido-2,3,4,4a,7,8-hexahydro-9λ^4-[1,4]thiazino[2,1-f][1,2]thiazin-7-yl)-5-fluoropyridin-2-yl]-5-cyano-3-methylpyridine-2-carboxamide]: the IC50 at BACE1 turned out to be 0.2 nM. In addition, the “Aβ40 (wt mice, brain)” value in experiment [1] (30 mg/kg) was determined as 62%.

On to `Cc1cc(C#N)cnc1C(=O)Nc1ccc(F)c(C2(C)CS3(=O)=NCCCCC3(C)C(N)=N2)n1` (single isomer, unassigned) [Example 2, N-[6-(6-amino-5a,8-dimethyl-10-oxido-3,4,5,5a,8,9-hexahydro-2H-10λ^4-[1,4]thiazino[2,1-g][1,2]thiazepin-8-yl)-5-fluoropyridin-2-yl]-5-cyano-3-methylpyridine-2-carboxamide], for which the IC50 at BACE1 turned out to be 0.2 nM. In experiment [1] (30 mg/kg), the “Aβ40 (wt mice, brain)” value is 48%.

As to `Cc1cc(C#N)cnc1C(=O)Nc1ccc(F)c(C2(C)CS3(=O)=NCCCCC3(C)C(N)=N2)n1` (single isomer, unassigned) [Example 3, N-[6-(6-amino-5a,8-dimethyl-10-oxido-3,4,5,5a,8,9-hexahydro-2H-10λ^4-[1,4]thiazino[2,1-g][1,2]thiazepin-8-yl)-5-fluoropyridin-2-yl]-5-cyano-3-methylpyridine-2-carboxamide], on BACE1, the IC50 came to 13.8 nM. Moreover, in experiment [1] (30 mg/kg), the “Aβ40 (wt mice, brain)” value was determined as 95%.

`Cc1cc(C#N)cnc1C(=O)Nc1ccc(F)c(C2(C)CS3(=O)=NCCCCC3(C)C(N)=N2)n1` (single isomer, unassigned) [Example 4, N-[6-(6-amino-5a,8-dimethyl-10-oxido-3,4,5,5a,8,9-hexahydro-2H-10λ^4-[1,4]thiazino[2,1-g][1,2]thiazepin-8-yl)-5-fluoropyridin-2-yl]-5-cyano-3-methylpyridine-2-carboxamide]: the IC50 on BACE1 came out at 0.4 nM. Moreover, in experiment [1] (30 mg/kg), the “Aβ40 (wt mice, brain)” value worked out at 83%.

Regarding `Cc1cc(C#N)cnc1C(=O)Nc1ccc(F)c(C2(CF)CS3(=O)=NCCCC3(C)C(N)=N2)n1` (single isomer, unassigned) [Example 5], on BACE1, the IC50 amounted to 0.8 nM. In addition, the “Aβ40 (wt mice, brain)” value in experiment [1] (30 mg/kg) is 88%.

In the case of `Cc1cc(C#N)cnc1C(=O)Nc1ccc(F)c(C2(CF)CS3(=O)=NCCCC3(C)C(N)=N2)n1` (single isomer, unassigned) [Example 6], the half-maximal inhibitory concentration (IC50) on BACE1 is 218 nM.

Turning to `CC12CCCN=S1(=O)CC(CF)(c1nc(NC(=O)c3ccc(OCC(F)(F)C(F)F)cn3)ccc1F)N=C2N` (single isomer, unassigned) [Example 7], the IC50 at BACE1 was found to be 46 nM.

As for `Cc1cc(C#N)cnc1C(=O)Nc1ccc(F)c(C2(CF)CS3(=O)=NCCCC3(C)C(N)=N2)n1` (single isomer, unassigned) [Example 8], at BACE1, the IC50 was above 200 nM.

For the molecule `Cc1cc(C#N)cnc1C(=O)Nc1ccc(F)c(C2(CF)CS3(=O)=NCCCC3(C)C(N)=N2)n1` (single isomer, unassigned) [Example 9], the IC50 on BACE1 amounted to 98 nM. Also, the “Aβ40 (wt mice, brain)” value in experiment [1] (30 mg/kg) was 113%.

Turning to `Cc1cc(C#N)cnc1C(=O)Nc1ccc(F)c(C2(C)CS3(=O)=NCCCC3(C)C(N)=N2)n1` (single isomer, unassigned) [Example 10], the concentration for half-maximal inhibition (IC50) on BACE1 is 2.9 nM. In addition, in experiment [1] (30 mg/kg), the “Aβ40 (wt mice, brain)” value is listed as 89%.

Take `CC1(c2nc(NC(=O)c3ncc(C#N)cc3Cl)ccc2F)CS2(=O)=NCCCC2(C)C(N)=N1` (single isomer, unassigned) [Example 11]: on BACE1, the IC50 was found to be 2.3 nM. Also, in experiment [1], the “Aβ40 (wt mice, brain)” value is 90%.

Take `CC1(c2nc(NC(=O)c3ccc(OCC(F)(F)C(F)F)cn3)ccc2F)CS2(=O)=NCCCC2(C)C(N)=N1` (single isomer, unassigned) [Example 12]: the IC50 at BACE1 turned out to be 320 nM. Moreover, in experiment [1], the “Aβ40 (wt mice, brain)” value was 77%.
